The nature of data set [1]: Solubility in pH 7.4 phosphate buffered saline. It counts as physicochemical. As to conditions: aqueous buffer.
For data set [2], the target named is CYP 2C9 (Homo sapiens, UniProt P11712). Description: Cytochrome P450 inhibition assay, 2C9. Format: in vitro ADME.
Data set [3] can be described thus: Microsome stability, human liver microsomes. As to conditions: read-out: Microsome stability t1/2 (H). Format: in vitro ADME. For orientation: Liver microsomes are a subcellular fraction often used to study metabolism.
For data set [4], the target named is CK1ε (Homo sapiens, UniProt P49674). Description: In-house kinase inhibition assay, CK1ε. Format: biochemical. The source says: (§1) [drawing 21] wherein the substituents W, X, Y, Z, and R^1, are as specified in the respective Table columns.
Data set [5] deals with CYP 3A4 (Homo sapiens, UniProt P08684). Description: Cytochrome P450 inhibition assay, 3A4. It counts as in vitro ADME.
For data set [6], the target named is CK1δ (Homo sapiens, UniProt P48730). Description: In-house kinase inhibition assay, CK1δ. It counts as biochemical.
Excerpt: as §1

The target in data set [7] is T1, CDK12 (Homo sapiens, UniProt Q9NYV4).
T1 construct: purchased DiscoverX
Kind of data set: Competition binding assay, DiscoverX (Kinomescan), CDK12.
Excerpt: as §1
In addition to screening a selected set of new inhibitors in CDK12/13 enzyme assays using Kinomescan™ technology, we tested all new compounds in a mechanism of action assay, which detects inhibition of phosphorylation of serine 2 (pSer2) on the C-terminal repeat domain (CTD) of RNA pol II.

Data set [8] can be described thus: Mouse PK. As to conditions: for AUC: read-out: AUCINF_dos (converted). It counts as in vivo.
Data set [9] is described as follows: Microsome stability, mouse liver microsomes. Particulars: read-out: Microsome stability t1/2. Format: in vitro ADME.
The target in data set [10] is T2, CDK13 (Homo sapiens, UniProt Q14004).
T2 construct: purchased DiscoverX
Description: Competition binding assay, DiscoverX (Kinomescan), CDK13.
Excerpt: as §1
In addition to screening a selected set of new inhibitors in CDK12/13 enzyme assays using Kinomescan™ technology, we tested all new compounds in a mechanism of action assay, which detects inhibition of phosphorylation of serine 2 (pSer2) on the C-terminal repeat domain (CTD) of RNA pol II. […] In order to confirm that CDK12/13 inhibition is driving cell death, we also plotted the growth inhibition pIC50's with pSer2 inhibition data. There was a good correlation when using the cell proliferation data from both U87 and MDA-MB-231 cell lines (FIGS. 5 and 6).

In data set [11] the target is CYP 2D6 (Homo sapiens, UniProt P10635). Description: Cytochrome P450 inhibition assay, 2D6. Format: in vitro ADME.
The target of data set [12] is T3, CYP 1A2 (Homo sapiens, UniProt P05177).
T3 sequence (P05177 1-516): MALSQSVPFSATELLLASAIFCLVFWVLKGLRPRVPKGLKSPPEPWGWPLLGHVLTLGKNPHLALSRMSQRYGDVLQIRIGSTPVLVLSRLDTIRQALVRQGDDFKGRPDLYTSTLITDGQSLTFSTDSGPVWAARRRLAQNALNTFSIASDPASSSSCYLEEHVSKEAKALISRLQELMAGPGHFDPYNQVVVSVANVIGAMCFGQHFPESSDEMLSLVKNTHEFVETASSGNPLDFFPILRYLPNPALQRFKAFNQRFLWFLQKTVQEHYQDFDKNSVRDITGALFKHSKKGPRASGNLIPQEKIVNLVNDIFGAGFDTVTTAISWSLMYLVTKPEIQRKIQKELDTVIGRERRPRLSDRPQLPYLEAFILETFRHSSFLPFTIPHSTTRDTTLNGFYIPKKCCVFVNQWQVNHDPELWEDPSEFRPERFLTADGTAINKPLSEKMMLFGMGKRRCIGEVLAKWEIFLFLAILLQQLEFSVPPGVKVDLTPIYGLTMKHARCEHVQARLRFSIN
Kind of data set: Cytochrome P450 inhibition assay, 1A2. It counts as in vitro ADME.

The nature of data set [13]: Microsome stability, rat liver microsomes. It counts as in vitro ADME. Particulars: read-out: Microsome stability t1/2 (R).
Data set [14] relates to U87 cell line. Kind of data set: Cell proliferation / growth inhibition, U87, 72 h (Cell-Titer Glo). Particulars: Homo sapiens, U-87 MG. It counts as cell-based.
The subject of data set [15] is MDA-MB-231 cell line. Description: Cell proliferation / growth inhibition, MDA-MB-231, 72 h (Cell-Titer Glo). It counts as cell-based. Particulars: Homo sapiens.
Data set [16] deals with other CDKs (CDK panel). Description: Selectivity in CDK panel (% of inhibition at 10 μM). Format: biochemical. As to conditions: FIG. 2. The protocol:
FIGS. 2a and 2b. Selectivity of selected CDK12/13 inhibitors against other CDKs (% of inhibition at 10 μM)

Where [17] appears, read: read-out: CK1δ IC50, read-out: CK1σ IC50.

≈ marks a conversion by molar mass, not a printed value. Where “and” joins values, the source holds several entries; their conditions need not be identical. Identical values can stand only once. Like-named read-outs stand apart in the source and are kept apart here.

Chain of CYP 2C9 (P11712 whole entry): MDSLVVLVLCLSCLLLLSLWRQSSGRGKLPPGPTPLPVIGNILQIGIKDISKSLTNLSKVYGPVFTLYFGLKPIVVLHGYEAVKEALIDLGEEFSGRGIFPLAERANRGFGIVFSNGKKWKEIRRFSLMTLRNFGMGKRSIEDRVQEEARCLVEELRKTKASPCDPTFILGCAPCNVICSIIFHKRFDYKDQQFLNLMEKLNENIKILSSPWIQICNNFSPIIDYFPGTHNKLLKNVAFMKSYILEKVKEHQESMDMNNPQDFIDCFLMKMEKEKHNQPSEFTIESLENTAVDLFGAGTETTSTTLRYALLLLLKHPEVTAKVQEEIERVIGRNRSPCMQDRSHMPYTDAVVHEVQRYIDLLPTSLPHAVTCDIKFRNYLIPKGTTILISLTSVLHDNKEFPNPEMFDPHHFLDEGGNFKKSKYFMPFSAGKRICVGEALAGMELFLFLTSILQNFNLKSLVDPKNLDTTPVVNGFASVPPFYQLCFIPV
Chain of CK1δ (P48730 whole entry): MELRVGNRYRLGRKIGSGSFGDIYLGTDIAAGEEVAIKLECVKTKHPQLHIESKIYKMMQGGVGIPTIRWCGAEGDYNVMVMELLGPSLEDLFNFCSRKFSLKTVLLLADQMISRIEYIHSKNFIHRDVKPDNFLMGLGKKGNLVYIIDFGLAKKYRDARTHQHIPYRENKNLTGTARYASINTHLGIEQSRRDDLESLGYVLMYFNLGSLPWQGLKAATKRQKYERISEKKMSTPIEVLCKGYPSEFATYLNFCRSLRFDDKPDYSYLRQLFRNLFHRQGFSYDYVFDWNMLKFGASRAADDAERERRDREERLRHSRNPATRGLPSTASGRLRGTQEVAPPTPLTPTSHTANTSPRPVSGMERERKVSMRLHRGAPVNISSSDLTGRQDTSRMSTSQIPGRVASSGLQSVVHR
Chain of CK1ε (P49674 whole entry): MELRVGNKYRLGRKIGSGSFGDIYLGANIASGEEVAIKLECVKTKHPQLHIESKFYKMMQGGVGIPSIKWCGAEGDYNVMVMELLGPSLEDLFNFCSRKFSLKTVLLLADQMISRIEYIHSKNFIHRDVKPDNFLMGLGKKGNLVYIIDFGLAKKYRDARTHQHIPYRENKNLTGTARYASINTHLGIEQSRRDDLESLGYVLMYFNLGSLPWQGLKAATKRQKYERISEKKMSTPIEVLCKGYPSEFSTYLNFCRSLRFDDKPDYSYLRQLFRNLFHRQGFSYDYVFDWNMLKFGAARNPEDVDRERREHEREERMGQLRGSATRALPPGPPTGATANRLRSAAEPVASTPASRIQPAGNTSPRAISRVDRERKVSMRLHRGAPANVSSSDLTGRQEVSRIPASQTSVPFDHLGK
Chain of CYP 3A4 (P08684 whole entry): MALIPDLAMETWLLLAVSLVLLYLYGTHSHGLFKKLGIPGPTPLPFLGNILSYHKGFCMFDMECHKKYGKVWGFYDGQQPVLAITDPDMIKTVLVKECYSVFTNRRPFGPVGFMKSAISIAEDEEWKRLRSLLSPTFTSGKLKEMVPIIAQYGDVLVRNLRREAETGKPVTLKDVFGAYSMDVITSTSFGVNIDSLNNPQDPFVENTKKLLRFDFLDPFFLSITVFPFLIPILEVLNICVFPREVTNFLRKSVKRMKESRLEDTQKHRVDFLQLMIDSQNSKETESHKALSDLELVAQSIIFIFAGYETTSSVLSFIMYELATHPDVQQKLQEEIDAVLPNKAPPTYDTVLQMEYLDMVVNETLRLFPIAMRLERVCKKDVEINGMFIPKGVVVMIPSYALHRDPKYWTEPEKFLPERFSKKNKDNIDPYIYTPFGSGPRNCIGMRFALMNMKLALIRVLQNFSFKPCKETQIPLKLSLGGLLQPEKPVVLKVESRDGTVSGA
Chain of CYP 2D6 (P10635 whole entry): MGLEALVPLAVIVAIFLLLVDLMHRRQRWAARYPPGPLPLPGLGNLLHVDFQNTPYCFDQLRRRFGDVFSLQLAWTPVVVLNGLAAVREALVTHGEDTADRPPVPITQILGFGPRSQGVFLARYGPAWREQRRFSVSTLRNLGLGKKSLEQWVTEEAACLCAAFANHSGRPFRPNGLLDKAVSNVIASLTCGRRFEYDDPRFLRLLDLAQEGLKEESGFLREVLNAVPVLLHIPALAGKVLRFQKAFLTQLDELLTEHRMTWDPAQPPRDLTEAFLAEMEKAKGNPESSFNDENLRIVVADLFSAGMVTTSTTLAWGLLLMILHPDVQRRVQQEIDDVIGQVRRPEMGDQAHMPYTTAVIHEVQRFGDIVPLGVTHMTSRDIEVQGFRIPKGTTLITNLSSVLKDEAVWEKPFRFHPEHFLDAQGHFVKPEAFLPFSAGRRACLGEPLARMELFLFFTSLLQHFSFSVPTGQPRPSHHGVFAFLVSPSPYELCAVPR
T2 sequence (Q14004 whole entry): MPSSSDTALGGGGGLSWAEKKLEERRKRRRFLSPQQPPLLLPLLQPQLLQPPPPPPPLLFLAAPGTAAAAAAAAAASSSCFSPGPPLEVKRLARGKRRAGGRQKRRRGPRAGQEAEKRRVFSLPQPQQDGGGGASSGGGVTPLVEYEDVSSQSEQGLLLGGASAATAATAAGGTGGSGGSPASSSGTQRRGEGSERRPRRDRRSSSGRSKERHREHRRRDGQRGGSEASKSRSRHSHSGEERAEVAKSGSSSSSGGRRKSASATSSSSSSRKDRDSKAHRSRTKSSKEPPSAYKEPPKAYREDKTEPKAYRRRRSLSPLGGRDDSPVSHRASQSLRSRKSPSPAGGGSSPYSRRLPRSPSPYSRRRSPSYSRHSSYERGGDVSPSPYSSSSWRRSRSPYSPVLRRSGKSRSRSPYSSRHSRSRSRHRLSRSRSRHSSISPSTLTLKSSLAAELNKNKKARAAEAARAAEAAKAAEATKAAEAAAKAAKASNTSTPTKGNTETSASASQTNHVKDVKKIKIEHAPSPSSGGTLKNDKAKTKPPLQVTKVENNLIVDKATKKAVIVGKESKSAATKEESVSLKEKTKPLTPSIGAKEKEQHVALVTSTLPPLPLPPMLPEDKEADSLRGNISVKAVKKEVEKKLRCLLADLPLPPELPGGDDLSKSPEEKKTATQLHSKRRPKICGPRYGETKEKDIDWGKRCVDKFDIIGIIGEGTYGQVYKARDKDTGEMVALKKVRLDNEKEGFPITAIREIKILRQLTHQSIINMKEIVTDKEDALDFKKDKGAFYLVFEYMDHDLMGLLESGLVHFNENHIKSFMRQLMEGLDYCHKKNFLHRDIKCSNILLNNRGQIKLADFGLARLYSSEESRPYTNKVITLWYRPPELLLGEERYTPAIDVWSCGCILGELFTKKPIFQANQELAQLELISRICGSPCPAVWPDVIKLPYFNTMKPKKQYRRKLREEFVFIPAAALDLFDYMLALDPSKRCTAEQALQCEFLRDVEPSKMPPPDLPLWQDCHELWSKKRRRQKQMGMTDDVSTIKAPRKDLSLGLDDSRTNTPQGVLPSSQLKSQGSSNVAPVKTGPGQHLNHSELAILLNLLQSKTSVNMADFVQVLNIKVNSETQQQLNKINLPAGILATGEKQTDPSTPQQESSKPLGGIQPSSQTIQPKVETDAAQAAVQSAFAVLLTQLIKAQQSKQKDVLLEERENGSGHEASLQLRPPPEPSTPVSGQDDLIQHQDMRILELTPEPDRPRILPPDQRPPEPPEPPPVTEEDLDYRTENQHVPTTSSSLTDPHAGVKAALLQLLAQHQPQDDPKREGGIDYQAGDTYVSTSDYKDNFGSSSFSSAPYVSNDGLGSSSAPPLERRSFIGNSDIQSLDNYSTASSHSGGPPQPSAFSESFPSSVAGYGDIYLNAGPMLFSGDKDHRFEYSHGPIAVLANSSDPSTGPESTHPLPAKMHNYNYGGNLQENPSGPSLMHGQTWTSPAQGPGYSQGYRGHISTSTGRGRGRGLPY

As to `Cn1cc(-n2cnc3c(NCc4nc5c(F)c(F)ccc5[nH]4)nc(N4CCOCC4)nc32)cn1` [Compound 1, N-((4,5-difluoro-1H-benzo[d]imidazol-2-yl)methyl)-9-(1-methyl-1H-pyrazol-4-yl) morpholino-9H-purin-6-amine], the concentration in solution in data set [1] (solubility) came to 6.1 µM (≈ 2.85 µg/mL). Besides, the “CYP inhibition 2C9” value in data set [2] amounted to 23 % inh. In addition, the half-life is 22 min in data set [3]; 179 min in data set [8] (in vivo, IP 30 mg/kg, 10/10/80 DMSO/Tween-80/water); 9 min in [9]; 20 min in data set [13]. The IC50 was 4.6 µM in [4] and 8.6 µM in data set [6] (setting [17]). Also, the “CYP inhibition 3A4” value in data set [5] was found to be 56 % inh. Besides, the Kd in data set [7] worked out at 0.014 µM; in data set [10] it was 0.005 µM. The “AUC % Extrap” value in [8] (IP 30 mg/kg) was determined as 0.1%. The compound further returned a CI_obs in data set [8] (IP 30 mg/kg) of 13.4 mL/min/kg. Besides, the AUC(0-t) in [8] (in vivo, IP 30 mg/kg) is 25400 ng·h/mL and 55 µM·h. In addition, the AUC in [8] (in vivo, IP 30 mg/kg) was 25500 ng·h/mL. For the same compound, in [8] (in vivo, IP 30 mg/kg, read-out: Cmax), the Cmax was 9330 ng/mL and 20 µM. The Tmax in data set [8] (in vivo, IP 30 mg/kg, read-out: Tmax) was 60 min. For the same compound, the “CYP inhibition 2D6” value in [11] was −3 % inh. Moreover, the “CYP inhibition 1A2” value in data set [12] was 10 % inh.
`Cn1cc(-n2cnc3c(NCc4nc5cc(F)c(F)cc5[nH]4)nc(N4CCOCC4)nc32)cn1` [Compound 2, N-((5,6-difluoro-1H-benzo[d]imidazol-2-yl)methyl)-9-(1-methyl-1H-pyrazol-4-yl) morpholino-9H-purin-6-amine] displayed a solubility in data set [1] of 0.8 µM (≈ 0.373 µg/mL). Further, in data set [2], the “CYP inhibition 2C9” value was 23 % inh. The half-life in data set [3] came out at 39 min; in data set [9], 11 min; in [13], 18 min. Moreover, the results for the IC50 in data set [4] and in data set [6] (setting [17]) were 6.5 µM and > 9.9 µM, respectively. Besides, the “CYP inhibition 3A4” value in [5] worked out at 55 % inh. For the same compound, the “CYP inhibition 2D6” value in data set [11] is 2 % inh. The “CYP inhibition 1A2” value in data set [12] was determined as 5 % inh.
The compound `Cc1cc(-n2cnc3c(NCc4nc5c(F)c(F)ccc5[nH]4)nc(N4CCOCC4)nc32)no1` [Compound 3, N-((4,5-difluoro-1H-benzo[d]imidazol-2-yl)methyl)-9-(5-methylisoxazol-3-yl)-2-morpholino-9H-purin-6-amine] gave a solubility in [1] of 3.6 µM (≈ 1.68 µg/mL). For the same compound, the “CYP inhibition 2C9” value in data set [2] turned out to be 23 % inh. Also, the half-life in [3] was determined as 13 min; in [9], 7 min; in data set [13], 11 min. In addition, the IC50 in [4] was determined as 1.25 µM; in data set [6] (setting [17]) it was 4.75 µM. Besides, the “CYP inhibition 3A4” value in [5] is given as 55 % inh. Further, the Kd in data set [7] was determined as 0.022 µM; in [10], 0.004 µM. Moreover, the “CYP inhibition 2D6” value in [11] is 2 % inh. For the same compound, in data set [12], the “CYP inhibition 1A2” value is recorded as 5 % inh.
In data set [1], `Fc1ccc2[nH]c(CNc3nc(N4CCOCC4)nc4c3ncn4-c3cscn3)nc2c1F` [Compound 4, N-((4,5-difluoro-1H-benzo[d]imidazol-2-yl)methyl)-2-morpholino-9-(thiazol-4-yl)-9H-purin-6-amine] returned a solubility of 0.8 µM (≈ 0.376 µg/mL). Further, the “CYP inhibition 2C9” value in data set [2] stood at 89 % inh. Also, the half-life came to 16 min in data set [3], 6 min in data set [9] and 9 min in data set [13]. In addition, the “CYP inhibition 3A4” value in data set [5] worked out at 89 % inh. The GI50 in data set [14] and in data set [15] was < 0.002 µM each time. For the same compound, in data set [11], the “CYP inhibition 2D6” value was 57 % inh. The “CYP inhibition 1A2” value in data set [12] is 97 % inh.
On to `Cn1cc(-n2cnc3c(NCc4nc5cc(Cl)c(Cl)cc5[nH]4)nc(N4CCOC[C@@H]4CO)nc32)cn1` [Compound 6, (S)-(4-(6-(((5,6-dichloro-1H-benzo[d]imidazol-2-yl)methyl)amino)-9-(1-methyl-1H-pyrazol-4-yl)-9H-purin-2-yl)morpholin-3-yl)methanol], for which the concentration in solution in data set [1] (solubility) was 0.8 µM (≈ 0.424 µg/mL). The “CYP inhibition 2C9” value in [2] turned out to be 69 % inh. Also, the figures for the half-life in data set [3], in [9] and in data set [13] were 21 min, 13 min and 19 min, respectively. In [5], the “CYP inhibition 3A4” value is listed as 77 % inh. For the same compound, the “CYP inhibition 2D6” value in data set [11] worked out at 42 % inh. Moreover, the “CYP inhibition 1A2” value in data set [12] is recorded as 42 % inh.
On to `Cn1cc(-n2cnc3c(NCc4nc5cc(Cl)c(Cl)cc5[nH]4)nc(N4CCOC[C@H]4CO)nc32)cn1` [Compound 7, (R)-(4-(6-(((5,6-dichloro-1H-benzo[d]imidazol-2-yl)methyl)amino)-9-(1-methyl-1H-pyrazol-4-yl)-9H-purin-2-yl)morpholin-3-yl)methanol], for which, in data set [1], the solubility amounted to 0.7 µM (≈ 0.371 µg/mL). For the same compound, the “CYP inhibition 2C9” value in [2] stood at 54 % inh. Besides, the half-life in data set [3] stood at 27 min. Besides, the “CYP inhibition 3A4” value in data set [5] came to 54 % inh. For the same compound, in data set [8] (IP 20 mg/kg), the “AUC % Extrap” value turned out to be 1.0%, the CI_obs is given as 61.6 mL/min/kg and the Tmax is 60 min. In data set [8] (IP 20 mg/kg, 10/10/80 DMSO/Tween-80/water), the T1/2 is 223 min. The AUC in data set [8] (in vivo, IP 20 mg/kg) was 5530 ng·h/mL. The half-life in data set [9] turned out to be 18 min. For the same compound, the “CYP inhibition 2D6” value in data set [11] came to 29 % inh. Besides, the “CYP inhibition 1A2” value in data set [12] is on record as 39 % inh. The half-life in [13] was 25 min.
For the compound `Fc1ccc2[nH]c(CNc3nc(N4CCOCC4)nc4c3ncn4-c3cncs3)nc2c1F` [Compound 8, N-((4,5-difluoro-1H-benzo[d]imidazol-2-yl)methyl)-2-morpholino-9-(thiazol-5-yl)-9H-purin-6-amine], the values for the IC50 in data set [4] and in data set [6] (setting [17]) were 0.632 µM and 0.419 µM, respectively.
With `Fc1ccc2[nH]c(CNc3nc(N4CCOCC4)nc4c3ncn4-c3nccs3)nc2c1F` [Compound 9, N-((4,5-difluoro-1H-benzo[d]imidazol-2-yl)methyl)-2-morpholino-9-(thiazol-2-yl)-9H-purin-6-amine], the values for the IC50 in [4] and in data set [6] (setting [17]) were 1.07 µM and 0.4 µM, respectively.
Turning to `COc1cc2nc(CNc3nc(N4CCOCC4)nc4c3ncn4-c3cnn(C)c3)[nH]c2cc1Cl` [Compound 10], the IC50 in data set [6] (read-out: CK1σ IC50) came out at 7.73 µM.
With `Fc1cccc(-n2cnc3c(NCc4nc5c(F)c(F)ccc5[nH]4)nc(N4CCOCC4)nc32)c1` [SR-3029], in data set [16], the “Selectivity in CDK panel” value is recorded as “good selectivity”.

In general, solubility refers to the dissolved amount per volume that the medium holds. Read a low solubility as a poorly soluble substance. One may read the IC50 as the concentration that gives 50% inhibition. The Kd is the equilibrium constant for the complex coming apart. High values mean lower affinity, low ones higher affinity. In general, AUC(0-t) refers to the area under the concentration-time curve up to a stated or last time point. What is called Cmax is the peak of the concentration-time curve. For orientation: Tmax means the time from dosing to the highest level. The term GI50 denotes the concentration at which growth is held to half of that of the control. A higher GI50 goes with less potent growth inhibition.

Source of the values: patent US11666578B2, “Small molecule inhibitors of CDK12/CDK13” (The Scripps Research Institute, priority 2018, dated 2023).
